# Experimental data taken from paper PMC12040169 (PLOS Biology, 2025).
# Experiment: in vitro
# Conditions: human, hela cells, % viability
row,Structure (SMILES),"viability at 28.5 h, 10 µM [%]"
1,Cc1noc(C)c1CCC(=O)NCc1cccc(C#N)c1 [CBK305938],108
2,Nc1nc2ccccc2n1CCOc1ccc(Cl)cc1 [CBK087352],85.9
3,CCCCCOc1ccc(C2NC(=O)NC2=O)cc1 (stereo not shown) [CBK287865],89
4,CCOC(=O)c1csc(C2CCCN2C(=O)CC2C=CCCC2)n1 (stereo not shown) [CBK305407],97.8
5,CN1CCN(CCC(=O)N/N=C/c2c[nH]c3ccccc23)CC1 [CBK261502],94.7
6,O=C(CN1C(=O)S/C(=C\c2ccccc2OCc2ccccc2)C1=O)c1ccc(Cl)cc1 [CBK264628],92.5
7,Oc1cccnc1N1CCNCC1 [CBK045850],88.8
8,O=C(CN1CCC(O)(c2ccccc2F)CC1)N1CCCCC1 [CBK281938],103
9,O=C(/C=C/c1ccco1)Nc1sc2c(c1C(=O)O)CCC2 [CBK263181],97.7
10,Cn1c(=O)n(C)c2cc(CNc3ccc(N4CCOCC4)c(C(=O)O)c3)ccc21 [CBK269463],84.7
11,O=C(CSc1cnn[nH]1)Nc1cccc(C(F)(F)F)c1 [CBK269888],90.8
12,Cc1cnc2[nH]c(C(C)C)c(CN(C)C)c2c1 [CBK284758],100
13,CCSc1nc2ccccc2n1C(=O)c1ccc(S(=O)(=O)N2CCCCCC2)cc1 [CBK265825],91.6
14,OCCOc1cccc(OCCOc2nccnc2N2CCNCC2)c1 [CBK014339G],112
15,COC(=O)[C@H]1CN(C(=O)c2ccccn2)C[C@@H]1c1ccc(F)cc1 [CBK283727],101
16,NS(=O)(=O)c1ccc(NC(=O)C2Cc3ccccc3CN2S(=O)(=O)c2ccc(F)cc2)cc1 (stereo not shown) [CBK265208],103
17,Cn1c(SCc2cccc3ccccc23)nnc1-c1ccc(NC(=O)/C=C/c2ccccc2)cc1 [CBK265034],114
18,O=C(O)COc1ccc(S(=O)(=O)N2CCCCC2)cc1Cl [CBK268419],105
19,COc1ccc(S(=O)(=O)n2ccc3cc(N4CCN(C)CC4)ccc32)cc1OC [CBK000286C],79.6
20,CC(=O)[C@H]1C[C@@H](CC(=O)NCc2csc(-c3ccccc3)n2)C1(C)C [CBK092335],109
21,O=[N+]([O-])c1ccccc1S(=O)(=O)N1CCN(S(=O)(=O)c2ccc(F)cc2)CC1 [CBK264236],92.7
22,C(=N\c1ccc(Cc2ccc(/N=C/c3ccc[nH]3)cc2)cc1)/c1ccc[nH]1 [CBK261282],101

row,Structure (SMILES),"viability at 28.5 h, 10 µM [%]"
1,CC(CC(=O)O)CC(=O)NC1CCN(Cc2ccccc2)CC1 (stereo not shown) [CBK287042],91.4
2,Cc1oc2c(CN(C)C)c(O)ccc2c(=O)c1-c1cnn(-c2ccccc2)c1 [CBK264496],101
3,CCNC(=O)C1(Cc2ccccc2-c2ccccc2C)CCN(C(=O)C2CCCCC2)CC1 [CBK285717],106
4,Cc1ccccc1C1(O)CCN(CC(O)c2ccc(F)cc2)CC1 (stereo not shown) [CBK282471],87.7
5,CCCn1c(Nc2nc3ccccc3n2C)nc2ccccc21 [CBK268310],85.7
6,Cc1ccc(C(=O)CN2CCC3(CC2)CC(=O)c2cc(Br)ccc2O3)cc1 [CBK162266],91.2
7,Cc1nn(C)c(Cl)c1S(=O)(=O)NCc1cc(C)n(C)n1 [CBK062154],94.5
8,COC(=O)c1ccc(-c2cnc(OCC3CCN(C(=O)OC(C)(C)C)CC3)nc2)nc1 [CBK170130],101
9,CC(=O)Nc1ccc(-c2ccc(C(=O)NCc3ccc(S(C)(=O)=O)cc3)cn2)cc1 [CBK158860],92.1
10,COc1ccc([N+](=O)[O-])c(Oc2cccc(C(F)(F)F)c2)n1 [CBK002796],94.5
11,O=C1CSC2(C(=O)N(Cc3ccccc3)c3ccccc32)N1c1ccccc1 (stereo not shown) [CBK092391],100
12,COc1ccc(C(C)C)cc1-c1cnc2nc(O)ccc2c1 [CBK081286],94.1
13,CC(C)(CO)CCCn1cncc1-c1cnn(-c2ccccc2)c1 [CBK281922],96.9
14,O=S(=O)(c1ccccc1)N1CC2(CCNCC2)c2ccccc21 [CBK137413],84.2
15,Cc1nnc(SCc2cc(=O)[nH]c(N3CCN(Cc4ccccc4)CC3)n2)s1 [CBK268837],104
16,OC1(c2ccccc2)CCN(Cc2ccccc2-n2cccn2)C1 (stereo not shown) [CBK282795],96.5
17,Cc1cccc(C(=O)Nc2ccccc2C(=O)N2CCN(C)CC2)c1 [CBK268565],89
18,Cc1ccc(NC(=O)c2cncnc2)c(C)n1 [CBK200380],81.1
19,CC1CCc2c(sc(NC(=S)NC(=O)c3ccc4c(c3)OCCO4)c2C(N)=O)C1 (stereo not shown) [CBK266370],101
20,COc1ccccc1N(CC(O)Cn1nc(C)cc1C)S(=O)(=O)c1ccccc1 (stereo not shown) [CBK264546],100
21,Cn1cnc([N+](=O)[O-])c1Sc1cccs1 [CBK002620],90.6
22,Cc1ccc(C2(C(=O)N3CCCC3)CCN(S(=O)(=O)c3ccc(C)cc3)CC2)cc1 [CBK008752],102

row,Structure (SMILES),"viability at 28.5 h, 10 µM [%]"
1,Cn1c(CN2CCCCC2)nc2cc(NS(=O)(=O)c3ccc(Cl)cc3)ccc21 [CBK268404],82.8
2,COc1c(C)cnc(COC(=O)N2C[C@@H](C)O[C@@H](C)C2)c1C [CBK200143],96.2
3,CCCC/C=C/c1ccc(N2CCN(CCN(C)C)CC2)nc1 [CBK036980],101
4,CC(=O)Nc1nc(OCCN2CCCC2=O)cnc1/C=C\c1ccccc1 [CBK145371],84.9
5,CN1CCN(c2ccc(C(=O)NC3CCCC3)cc2)CC1 [CBK200119],78.5
6,O=C(NCCn1nc(-c2ccco2)ccc1=O)C1CCCCC1 [CBK283743],105
7,Cc1cccc(C)c1NC(=O)CN1CCC(Oc2cncc(OCCN3CCOCC3)n2)C1 (stereo not shown) [CBK084489],95.5
8,COc1cccc(C(=O)NC(=S)Nc2ccc(C(=O)O)c(Cl)c2)c1 [CBK265065],103
9,COc1ccnc(N2CCN(C(=O)c3cc(C(C)=O)cn3C)CC2)n1 [CBK306272],91.2
10,C/C(=N\c1ccccc1C(F)(F)F)c1ccncc1 [CBK021262],86.6
11,CN1CCN(c2ccc(NC(=O)c3cc([N+](=O)[O-])ccc3N3CCOCC3)cc2)CC1 [CBK269425],95.6
12,O=C(NCCn1cccn1)c1ncoc1-c1ccc(F)cc1 [CBK282355],91.5
13,Nc1ncncc1-c1noc([C@@H]2CCCN2C2CCOCC2)n1 [CBK288932],90.7
14,CC(C)(C)Nc1c(C2CCN(C(=O)C3CC3)CC2)nc2ccccn12 [CBK284787],104
15,COc1ccc(-c2cc[nH]n2)c(OC)c1OC [CBK022957C],82
16,CC(=O)N1CCC(N2C[C@H](O)C[C@H]2c2nc(-c3cccc([N+](=O)[O-])c3)no2)CC1 [CBK288846],90.5
17,CC(C)Nc1cncc(Sc2cccc(N)c2)n1 [CBK091434],108
18,CCOC(=O)c1cc2c(=O)n3cc(C)ccc3nc2n(Cc2cccnc2)c1=N [CBK263095],90.5
19,CC(C)(C)NS(=O)(=O)c1ccc(NC(=O)NC2CCCCC2)cc1 [CBK267324],96.7
20,COC(C)(C)C(=O)N1CCCC(c2ccc(Cc3ccc(Cl)cc3)cn2)C1 (stereo not shown) [CBK285846],98.6
21,COc1ccc(CCNC(=O)N2CCCC2C(=O)O)cc1 (stereo not shown) [CBK161386],116
22,[N-]=[N+]=NC1C2OCC(O2)C(OCc2ccccc2)C1O (stereo not shown) [CBK261000],90.1

row,Structure (SMILES),"viability at 28.5 h, 10 µM [%]"
1,C=CCNc1nccnc1-c1ccccc1OC [CBK036831],106
2,O=C(O)C1CCCN(C(=O)Cc2csc(COc3ccc(Cl)cc3)n2)C1 (stereo not shown) [CBK304501],88.1
3,COc1cc(CN2CCN(C(=O)c3cccc(Cl)c3)CC2)cc(OC)c1OC [CBK074530],97.1
4,O=C(O)C1CCN(C(=O)CCN2C(=O)[C@@H]3Cc4ccccc4CN3C2=O)CC1 [CBK286682],88.2
5,COc1cc(/C=C2\C(=O)N(c3ccc(NC(C)=O)cc3)N=C2c2ccccc2)ccc1O [CBK265664],87.5
6,Fc1ccccc1CN1CCC(Oc2nccnc2OCC2COc3ccccc3O2)CC1 (stereo not shown) [CBK082979T],101
7,Cc1ccc(CSCCNS(=O)(=O)c2ccsc2C(=O)O)cc1 [CBK296727],92.6
8,Cc1csc2c(C3CCCN(C(=O)c4cc[nH]n4)C3)nc(C)n12 (stereo not shown) [CBK285238],88.1
9,Cc1cc(C(C)NC(=O)C2CCCN(S(C)(=O)=O)C2)c(C)s1 (stereo not shown) [CBK305464],98.4
10,CC(C)(C)S(=O)(=O)Nc1nccnc1-c1cccs1 [CBK050765],107
11,CCN1C(=O)CC2(C1=O)C(=O)N(CCCOc1ccccc1OC)c1ccccc12 (stereo not shown) [CBK075498],109
12,CN1CCN(CCCNC(=O)N(CCC#N)C2CCCCC2)CC1 [CBK156346],112
13,Cc1ccccc1-n1ncc2c(N3CCCC3)ncnc21 [CBK287648],99.2
14,CCOC(=O)C1(C)C=C(Nc2cccc(C)c2)C(=O)N1c1ccccc1 (stereo not shown) [CBK263757],96.8
15,Cc1ccc(-n2c(SCC(=O)N3CCCCC3)nnc2-c2cc(Br)ccc2O)c(C)c1 [CBK269070],94.7
16,O=C(NC/C=C/c1cn(C2OC(CO)C(O)C2O)c(=O)[nH]c1=O)C(F)(F)F (stereo not shown) [CBK201298],104
17,COC(=O)c1ccc(S(=O)(=O)n2ccn(-c3cccc(C(F)(F)F)c3)c2=O)n1C [CBK106594],90.1
18,COc1ccccc1N1C(=O)[C@H]2N=C(C(=O)c3cnccn3)N[C@H]2C1=O [CBK021406],90.3
19,Cc1ccccc1C(NC(=O)C1CCN(C(=O)NCc2ccccc2)CC1)c1ncccc1C (stereo not shown) [CBK060398],94.9
20,C[C@H]1CN2C[C@H](O)CC2CN1Cc1cccn1-c1ccc(F)cc1 (stereo partly shown) [CBK285465],97.4
21,O=S(=O)(Cc1ccccc1)Nc1nnc(C(F)(F)F)s1 [CBK045539],84.8
22,CCOC(=O)C1=C(C)NC(=O)NC1c1ccc(-c2ccccc2F)o1 (stereo not shown) [CBK263867],95.7
